What was measured:
[1] = Stability of crystalline forms of ibandronate sodium when stored for 3 months at room temperature (polymorphic form by XRD); assay type: physicochemical; settings: for crystalline form after storage: storage at room temperature for 3 months; for Results (crystalline form after storage): stored at 25° C., polyethylene bags in closed Aluminium bags, monosodium salt
Method: The x-ray powder diffraction was performed on Scintag X-ray powder diffractometer model X'TRA with a solid state detector at room temperature. Copper radiation of 1.5418 Å was used. The sample holder was a round standard aluminum sample holder with rough zero background. The scanning parameters were range: 2-40 degrees two-theta; scan mode: continuous scan; step size: 0.05 degrees; and at a rate of 5 degrees/minute. […]

[2] = Storage of crystalline ibandronate sodium Form C at room temperature for 2 years, retested by XRD; assay type: physicochemical; settings: stored at room temperature for 2 years
Method: The x-ray powder diffraction was performed on Scintag X-ray powder diffractometer model X'TRA with a solid state detector at room temperature. Copper radiation of 1.5418 Å was used. The sample holder was a round standard aluminum sample holder with rough zero background. The scanning parameters were range: 2-40 degrees two-theta; scan mode: continuous scan; step size: 0.05 degrees; and at a rate of 5 degrees/minute.
Crystalline ibandronate sodium Form C was stored at room temperature for 2 years.

| SMILES | crystalline form after storage [1] | Results (crystalline form after storage) ([1]; 1 month) | Results (crystalline form after storage) ([1]; 3 months) | crystalline form found by XRD after storage [2] |
| --- | --- | --- | --- | --- |
| CCCCCN(C)CCC(O)(P(=O)([O-])O)P(=O)(O)O.[Na+] [Form Alpha, (1-hydroxy-3-(N-methyl-N-pentylamino)propylidene) bisphosphonic acid monosodium salt] | maintained their crystalline form | Alpha | Alpha | – |
| CCCCCN(C)CCC(O)(P(=O)([O-])O)P(=O)(O)O.[Na+] [Form C2, (1-hydroxy-3-(N-methyl-N-pentylamino)propylidene) bisphosphonic acid monosodium salt] | maintained their crystalline form | – | – | – |
| CCCCCN(C)CCC(O)(P(=O)([O-])O)P(=O)(O)O.[Na+] [Form C, (1-hydroxy-3-(N-methyl-N-pentylamino)propylidene) bisphosphonic acid monosodium salt, reference compound] | maintained their crystalline form | – | – | crystalline ibandronate sodium Form V |
| CCCCCN(C)CCC(O)(P(=O)([O-])O)P(=O)(O)O.[Na+] [Form n-butanolate, (1-hydroxy-3-(N-methyl-N-pentylamino)propylidene) bisphosphonic acid monosodium salt] | maintained their crystalline form | n-butanolate | n-butanolate | – |

— patent US20090042839A1, “Crystalline forms of ibandronate sodium” (priority 2007, published 2009)
